As a reminder, the EC50 is the concentration needed to bring the measured effect to its halfway point.

Counter-ions that a name gives are not always drawn.

This is an account of results in patent US10000486B2 (priority 2012, dated 2018).

Assay [1] deals with Lassa GP-pseudotyped-virus. Nature of the assay: microbe, parasite or virus in culture. In kind it is cell-based, Lassa fever virus. Conditions: for EC50: Human immunodeficiency virus 1, read-out: Activity (EC50 in μM vs. pseudotyped virus) Lassa.
The next assay has as its system VSVg pseudotyped virus. As to the kind of experiment: organism not typed. The format is cell-based. Conditions: read-out: Activity (EC50 in μM vs. pseudotyped virus) VSVg.
Assay [2] concerns Guanarito pseudotyped virus. Nature of the assay: organism not typed. The format is cell-based. Conditions: read-out: Activity (EC50 in μM vs. pseudotyped virus) Guanarito.
The test system of assay [3] is Machupo pseudotyped virus. Nature of the assay: organism not typed. The format is cell-based. Conditions: read-out: Activity (EC50 in μM vs. pseudotyped virus) Machupo.
Another assay has as its system Sabiá pseudotyped virus. Nature of the assay: organism not typed. Conditions: read-out: Activity (EC50 in μM vs. pseudotyped virus) Sabiá. In kind it is cell-based.
Another assay concerns Junín pseudotyped virus. Nature of the assay: organism not typed. The format is cell-based. Conditions: read-out: Activity (EC50 in μM vs. pseudotyped virus) Junín.

Turning to `CCOc1ccc(-n2cnc3cc(OCc4ccc(CC)cc4)cnc32)cc1` [Compound 31, 3-(4-ethoxyphenyl)-6-[(4-ethylphenyl)-methoxy]imidazo[4,5-b]pyridine], the EC50 in assay [1] was below 1 µM; in the assay with VSVg pseudotyped virus, 10 to 50 µM; in assay [2] it was below 1 µM; in assay [3], below 1 µM; with Sabiá pseudotyped virus it was below 1 µM; with Junín pseudotyped virus, below 1 µM.

For `CCOc1ccc(-n2cnc3cc(SCc4ccc(CC)cc4)ccc32)cc1` [Compound 33, 1-(4-ethoxyphenyl)-5-[(4-ethylphenyl)-methylsulfanyl]benzimidazole], the EC50 in assay [1] is below 1 µM; in the assay on VSVg pseudotyped virus, 10 to 50 µM; in assay [2] it was below 1 µM; in assay [3], below 1 µM; in the assay on Sabiá pseudotyped virus, below 1 µM; in the assay with Junín pseudotyped virus, below 1 µM.

In the case of `CCOc1ccc(-n2cnc3cc(/C=C\c4ccc(CC)cc4)ccc32)cc1` [Compound 2, 1-(4-ethoxyphenyl)-5-[(Z)-2-(4-ethylphenyl)vinyl]benzimidazole], the “EC50 value against Lassa GP-pseudotyped-virus” value in assay [1] was “submicromolar”. The EC50 in assay [1] was below 1 µM; with VSVg pseudotyped virus, 10 to 50 µM; in assay [2], below 1 µM; in assay [3], below 1 µM; in the assay with Sabiá pseudotyped virus, below 1 µM; with Junín pseudotyped virus it was below 1 µM.

Consider `CCOc1ccc(-n2cnc3cc(CCc4ccc(CC)cc4)ccc32)cc1` [Compound 27, 1-(4-ethoxyphenyl)-5-[2-(4-ethylphenyl)-ethyl]benzimidazole], for which the half-maximal effective concentration (EC50) is below 1 µM in assay [1]; above 50 µM in the assay with VSVg pseudotyped virus; below 1 µM in assay [2]; below 1 µM in assay [3]; below 1 µM in the assay on Sabiá pseudotyped virus; below 1 µM in the assay on Junín pseudotyped virus.

As to `CCOc1ccc(-n2cnc3cc(/C=C\c4ccc(CC)cc4)ccc32)nc1` [Compound 19, 1-(5-ethoxy-2-pyridyl)-5-[(Z)-2-(4-ethylphenyl)vinyl]benzimidazol hydrochloride], the EC50 was below 1 µM in assay [1]; 10 to 50 µM in the assay on VSVg pseudotyped virus; below 1 µM in assay [3]; below 1 µM in the assay on Sabiá pseudotyped virus; below 1 µM in the assay on Junín pseudotyped virus.

`CCOc1ccc(-n2cnc3cc(/C=C\c4ccc(C(C)(C)C)cc4)ccc32)nc1` [Compound 21, 5-[(Z)-2-(4-tert-butylphenyl)vinyl]-1-(5-ethoxy-2-pyridyl)benzimidazole hydrochloride]: the EC50 was below 1 µM in assay [1]; 10 to 50 µM with VSVg pseudotyped virus; below 1 µM in assay [3]; below 1 µM in the assay with Sabiá pseudotyped virus; below 1 µM with Junín pseudotyped virus.

In the case of `COc1ccc(-n2cnc3cc(OCc4ccc(C(C)C)cc4)cnc32)cc1` [Compound 32, 6-[(4-isopropyl-phenyl)methoxy]-3-(4-methoxyphenyl)imidazo[4,5-b]pyridine], the concentration for a half-maximal effect (EC50) in assay [1] is below 1 µM; in the assay on VSVg pseudotyped virus, 10 to 50 µM; in assay [3], below 1 µM; in the assay with Sabiá pseudotyped virus, below 1 µM; in the assay with Junín pseudotyped virus it was below 1 µM.
